{"source": "ChEMBL document CHEMBL5727551", "about": "“5-(n-[6,5]-fused bicyclic aryl tetrahydroisoquinolin-6-yl) pyridin-3-yl acetic acid derivatives as inhibitors of human immunodeficiency virus replication” (2020)", "experiment": "Inhibition of HIV Replication: A recombinant NL-RLuc proviral clone was constructed in which a section of the nef gene from NL4-3 was replaced with the Renilla Luciferase gene. This virus is fully infectious and can undergo multiple cycles of replication in cell culture. In addition, the luciferous reporter provides a simple and easy method for quantitating the extent of virus growth and consequently, the antiviral activity of test compounds. The plasmid pNLRLuc contains the proviral NL-Rluc DNA cloned into pUC 18 at the PvuII site. The NL-RLuc virus was prepared by transfection of 293T cells with the plasmid pNLRLuc. Transfections were performed using the LipofectAMINE PLUS kit from Invitrogen (Carlsbad, Calif.) according to the manufacturer and the virus generated was titered in MT-2 cells. For susceptibility analyses, the titrated virus was used to infect MT-2 cells in the presence of compound, and after 5 days of incubation, cells were processed and quantitated for virus growth by the amount of expressed luciferase. Assay media was RPMI 1640 supplemented with 10% heat inactivated fetal bovine serum (FBS), 100 units/ml penicillin G/100 units/ml streptomycin, 10 mM HEPES buffer pH 7.55 and 2 mM L-glutamine. The results from at least 2 experiments were used to calculate the EC50 values. Luciferase was quantitated using the Dual Luciferase kit from Promega (Madison, Wis.). […]", "format": "cell-based", "data": [{"smiles": "Cc1nc(C)c([C@H](OC(C)(C)C)C(=O)O)c(N2CCC(C)(C)CC2)c1-c1ccc2c(c1)CCN(c1ncnc3cc[nH]c13)C2", "values": [{"measurement": "EC50", "value": 20, "unit": "nM"}]}]}
